“And” between values parts separate entries of the source, which are not always exact repeats. Identical values can stand only once.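 Assay format: 96-well plates, 48-hour exposure. Abbreviation: GI50, concentration required for 50% inhibition of growth.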 The source made the active and inactive calls. Cut-off read from the data, not from the text of the source: active = GI50 up to about 1.1 µM and inactive = higher.
Tests used:
Experiment in all cases: NCI anticancer screen, dose series, 48 h
A549 = system: A549
ACHN = system: ACHN
DU-145 = system: DU-145
EKVX = system: EKVX
HOP-92 = system: HOP-92
Hs-578T = system: Hs-578T
KM12 = system: KM12
MDA-MB-231 = system: MDA-MB-231
MDA-N = system: MDA-N
NCI-H23 = system: NCI-H23
NCI-H460 = system: NCI-H460
OVCAR-3 = system: OVCAR-3
OVCAR-4 = system: OVCAR-4
RPMI-8226 = system: RPMI-8226
SF-539 = system: SF-539
SK-MEL-5 = system: SK-MEL-5
SN12C = system: SN12C
TK-10 = system: TK-10
U-251 = system: U-251
HCC 2998 = system: HCC 2998

Row | SMILES | GI50 (A549) | GI50 (ACHN) | GI50 (DU-145) | GI50 (EKVX) | GI50 (HOP-92) | GI50 (Hs-578T) | GI50 (KM12) | GI50 (MDA-MB-231) | GI50 (MDA-N) | GI50 (NCI-H23) | GI50 (NCI-H460) | GI50 (OVCAR-3) | GI50 (OVCAR-4) | GI50 (RPMI-8226) | GI50 (SF-539) | GI50 (SK-MEL-5) | GI50 (SN12C) | GI50 (TK-10) | GI50 (U-251) | GI50 (HCC 2998)
1 | O=C(Nc1ccc(-c2cn3ccccc3n2)cc1)c1cc(Br)ccc1O | > 100 µM (inactive) | > 100 µM (inactive) | > 100 µM (inactive) | > 100 µM (inactive) | > 100 µM (inactive) | > 100 µM (inactive) | > 100 µM (inactive) | > 100 µM (inactive) | > 100 µM (inactive) | > 100 µM (inactive) | > 100 µM (inactive) | > 100 µM (inactive) | > 100 µM (inactive) | > 100 µM (inactive) | > 100 µM (inactive) | > 100 µM (inactive) | > 100 µM (inactive) | > 100 µM (inactive) | > 100 µM (inactive) | 
2 | Nc1nc(N)c2nc(CNc3ccc(C(=O)NC(CCNC(=O)c4ccccc4C(=O)O)C(=O)O)cc3)cnc2n1 (centres undefined) | 0.01 µM (active) | 0.01 µM (active) | 0.0339 µM (active) | > 100 µM (inactive) | 0.0698 µM (active) | > 100 µM (inactive) | 0.0168 µM (active) | > 100 µM (inactive) | 0.00785 µM (active) | < 0.0226 µM (active) | 0.01 µM (active) | 31.6 µM (inactive) | > 100 µM (inactive) | 0.083 µM (active) | < 0.0256 µM (active) | < 0.0286 µM (active) | 0.01 µM (active) | > 100 µM (inactive) | < 0.0254 µM (active) | 
3 | COc1cc2c[n+](C)c3c4ccccc4ccc3c2cc1OC | 0.845 µM (active) | 35.9 µM (inactive) | 3.8 µM (inactive) | 2.54 µM (inactive) |  | 2.51 µM (inactive) | 0.452 µM (active) | 5.05 µM (inactive) | 4.45 µM (inactive) | 2.6 µM (inactive) | 10 µM (inactive) | 6.05 µM (inactive) | 9.4 µM (inactive) | 3.05 µM (inactive) | 6.17 µM (inactive) | 2.87 µM (inactive) | 1.32 µM (inactive) | 26.7 µM (inactive) | 0.726 µM (active) | 4.81 µM (inactive)
4 | CC(=O)/C=C1\Nc2ccc([N+](=O)[O-])cc2N\C1=C/C(C)=O | 38.3 µM (inactive) | 42.5 µM (inactive) | 80.5 µM (inactive) | 42.4 µM (inactive) | 28.4 µM (inactive) | 26.7 µM (inactive) | 34.3 µM (inactive) | 92.5 µM (inactive) | 37.3 µM (inactive) | 25.1 µM (inactive) | 21.5 µM (inactive) | 31.1 µM (inactive) | 44.7 µM (inactive) | 20.6 µM (inactive) | 46.6 µM (inactive) | 24.7 µM (inactive) | 28.7 µM (inactive) | 65.5 µM (inactive) | 35.3 µM (inactive) | 
5 | COc1ccc(-c2nc(-c3ccc(OC)cc3)n(-c3ccccc3)n2)cc1 | 56.6 µM (inactive) | > 100 µM (inactive) | > 100 µM (inactive) | 56.4 µM (inactive) | 52 µM (inactive) | > 100 µM (inactive) | 40.2 µM (inactive) | 50.2 µM (inactive) | > 100 µM (inactive) | 39.4 µM (inactive) | > 100 µM (inactive) | 46.8 µM (inactive) | 31.7 µM (inactive) |  | > 100 µM (inactive) | 54.1 µM (inactive) | > 100 µM (inactive) | > 100 µM (inactive) | 78.9 µM (inactive) | 
6 | O=C1NC(=O)[C@@]2(CC[C@@H](O)C2)c2ccncc21 [SESBANINE] | > 100 µM (inactive) | > 100 µM (inactive) | > 100 µM (inactive) | > 100 µM (inactive) | > 100 µM (inactive) | > 100 µM (inactive) | > 100 µM (inactive) | > 100 µM (inactive) | > 100 µM (inactive) | > 100 µM (inactive) | > 100 µM (inactive) |  | > 100 µM (inactive) |  | > 100 µM (inactive) | > 100 µM (inactive) | > 100 µM (inactive) | > 100 µM (inactive) | > 100 µM (inactive) | > 100 µM (inactive)
7 | COc1cc2c(cc1OC)C1Cc3cc(OC)c(OC)cc3C(C2)N1C | > 100 µM (inactive) | > 100 µM (inactive) | > 75 µM (inactive) | > 100 µM (inactive) | 7.71 µM (inactive) | > 75 µM (inactive) | 44.3 µM (inactive) | 0.0297 µM (active) | 63.1 µM (inactive) | > 100 µM (inactive) and 54.7 µM (inactive) |  | > 100 µM (inactive) | > 100 µM (inactive) |  | 20.8 µM (inactive) | > 100 µM (inactive) | > 100 µM (inactive) and 62.5 µM (inactive) |  | > 100 µM (inactive) | > 75 µM (inactive)

— ChEMBL document CHEMBL1201862, “PubChem BioAssay data set” (2004)
